# Source: patent publication US20250129121A1, “POLYPEPTIDE, PRODUCT INCLUDING POLYPEPTIDE FOR INHIBITING FUSOBACTERIUM NUCLEATUM, OR DRUG FOR PREVENTING COLORECTAL CANCER” (priority 2022, published 2025)
# Where a SMILES comes first, the peptide text is derived from it.
# Columns and labels:
# F. nucleatum 25586 = format: cell-based, Fusobacterium nucleatum; conditions: 25586, 20 h
# Experimental: (§1) A. Each polypeptide was prepared into a specified stock solution for later use. Minimum inhibitory concentrations (MICs) of the polypeptides P1 to P12 were determined by a broth microdilution method. With 0.01% acetic acid (including 0.2% of bovine serum albumin (BSA)) as a diluent, a series of gradient antimicrobial peptide solutions were prepared by a two-fold dilution method.
# (§2) B. 100 μL of each polypeptide stock solution was taken and added to a 96-well cell culture plate, and then each strain solution to be tested (about 10^5/mL) was added in an equal volume to each well. A positive control (including a strain solution, but not including a polypeptide) and a negative control (including neither a strain solution nor a polypeptide). Strains to be tested include Escherichia coli Nissile 1917, Vibrio cholerae H1, Pseudomonas aeruginosa PAO1, F. nucleatum 25586, F. nucleatum 10953, Bifidobacterium uniformis 6597, Lactobacillus acidophilus 6075, Bifidobacterium longum 6194Lactobacillus rhamnosus 6141, and Streptococcus agalactiae H94.
# (§3) C. The cell culture plate was incubated at a constant temperature of 37° C. for 20 h, and MIC was recorded when the turbidity was not observed by naked eyes at a bottom of a well. The strains all were purchased from the market.
# F. nucleatum 10953 = format: cell-based, Fusobacterium nucleatum; conditions: 10953, 20 h
# Experimental: as §1, §2, §3
# [1] = system: Bifidobacterium longum 6194; format: cell-based; conditions: 20 h
# Experimental: as §1, §2, §3
# [2] = system: Escherichia coli Nissile 1917; format: cell-based; conditions: Nissile 1917, 20 h
# Experimental: as §1, §2, §3
# [3] = system: Pseudomonas aeruginosa PAO1; format: cell-based; conditions: PAO1, 20 h
# Experimental: as §1, §2, §3
# [4] = system: Lactobacillus acidophilus 6075; format: cell-based; conditions: 20 h
# Experimental: as §1, §2, §3
# [5] = system: Lactobacillus rhamnosus 6141; format: cell-based; conditions: 20 h
# Experimental: as §1, §2, §3
# [6] = system: Streptococcus agalactiae H94; format: cell-based; conditions: H94, 20 h
# Experimental: as §1, §2, §3
# [7] = system: Bifidobacterium uniformis 6597; format: cell-based; conditions: 20 h
# Experimental: as §1, §2, §3
SMILES,MIC Fusobacterium nucleatum 25586 (F. nucleatum 25586),MIC Fusobacterium nucleatum 10953 (F. nucleatum 10953),MIC Bifidobacterium longum 6194 [1],MIC Escherichia coli nissile1917 [2],MIC Pseudomonas aeruginosa PAO1 [3],MIC Lactobacillus acidophilus 6075 [4],MIC Lactobacterium rhamnosus 6141 [5],MIC Streptococcus agalactiae H94 [6],MIC Bifidobacteriu muniformis 6597 [7]
N=C(N)NCCC[C@H](NC(=O)CNC(=O)[C@@H]1CCCN1C(=O)[C@H](CCCNC(=N)N)NC(=O)[C@H](Cc1c[nH]c2ccccc12)NC(=O)[C@H](CCCCN)NC(=O)[C@H](Cc1c[nH]c2ccccc12)NC(=O)[C@H](Cc1c[nH]c2ccccc12)NC(=O)[C@H](CCCCN)NC(=O)[C@H](Cc1c[nH]c2ccccc12)NC(=O)[C@H](CCCNC(=N)N)NC(=O)CNC(=O)[C@@H]1CCCN1C(=O)[C@H](CCCNC(=N)N)NC(=O)[C@H](Cc1c[nH]c2ccccc12)NC(=O)[C@H](CCCCN)NC(=O)[C@@H](N)Cc1c[nH]c2ccccc12)C(=O)N[C@@H](Cc1c[nH]c2ccccc12)C(=O)N[C@@H](CCCCN)C(=O)N[C@@H](Cc1c[nH]c2ccccc12)C(=O)O [P12] (H-WKWRPGRWKWWKWRPGRWKW-OH; N-terminus assumed),2 µM,2 µM,16 µM,32 µM,32 µM,32 µM,>64 µM,2 µM,64 µM
"N=C(N)NCCC[C@H](NC(=O)CNC(=O)[C@@H]1CCCN1C(=O)[C@H](CCCNC(=N)N)NC(=O)[C@H](Cc1c[nH]c2ccccc12)NC(=O)[C@H](CC(=O)O)NC(=O)[C@H](Cc1c[nH]c2ccccc12)NC(=O)[C@H](CCCNC(=N)N)NC(=O)[C@H](Cc1c[nH]c2ccccc12)NC(=O)[C@H](CC(=O)O)NC(=O)[C@@H](N)Cc1c[nH]c2ccccc12)C(=O)N[C@@H](Cc1c[nH]c2ccccc12)C(=O)N[C@@H](CC(=O)O)C(=O)N[C@@H](Cc1c[nH]c2ccccc12)C(=O)N[C@@H](CCCNC(=N)N)C(=O)N[C@@H](Cc1c[nH]c2ccccc12)C(=O)N[C@@H](CC(=O)O)C(=O)N[C@@H](Cc1c[nH]c2ccccc12)C(=O)O [P5, WDWRWDWRPGRWDWRWDW] (H-WDWRWDWRPGRWDWRWDW-OH; N-terminus assumed)",>64 µM,>64 µM,>64 µM,64 µM,>64 µM,>64 µM,>64 µM,>64 µM,>64 µM
"N=C(N)NCCC[C@H](NC(=O)CNC(=O)[C@@H]1CCCN1C(=O)[C@H](CCCNC(=N)N)NC(=O)[C@H](Cc1c[nH]c2ccccc12)NC(=O)[C@H](Cc1c[nH]cn1)NC(=O)[C@@H](N)Cc1c[nH]c2ccccc12)C(=O)N[C@@H](Cc1c[nH]c2ccccc12)C(=O)N[C@@H](Cc1c[nH]cn1)C(=O)N[C@@H](Cc1c[nH]c2ccccc12)C(=O)O [P7, WHWRPGRWHW] (H-WHWRPGRWHW-OH; N-terminus assumed)",64 µM,8 µM,>64 µM,64 µM,>64 µM,32 µM,64 µM,>64 µM,>64 µM
N=C(N)NCCC[C@H](NC(=O)CNC(=O)[C@@H]1CCCN1C(=O)[C@H](CCCNC(=N)N)NC(=O)[C@H](Cc1c[nH]c2ccccc12)NC(=O)[C@H](Cc1c[nH]cn1)NC(=O)[C@H](Cc1c[nH]c2ccccc12)NC(=O)[C@H](Cc1c[nH]c2ccccc12)NC(=O)[C@H](Cc1c[nH]cn1)NC(=O)[C@H](Cc1c[nH]c2ccccc12)NC(=O)[C@H](CCCNC(=N)N)NC(=O)CNC(=O)[C@@H]1CCCN1C(=O)[C@H](CCCNC(=N)N)NC(=O)[C@H](Cc1c[nH]c2ccccc12)NC(=O)[C@H](Cc1c[nH]cn1)NC(=O)[C@@H](N)Cc1c[nH]c2ccccc12)C(=O)N[C@@H](Cc1c[nH]c2ccccc12)C(=O)N[C@@H](Cc1c[nH]cn1)C(=O)N[C@@H](Cc1c[nH]c2ccccc12)C(=O)O [P9] (H-WHWRPGRWHWWHWRPGRWHW-OH; N-terminus assumed),64 µM,64 µM,64 µM,>64 µM,>64 µM,64 µM,>64 µM,>64 µM,>64 µM
"N=C(N)NCCC[C@H](NC(=O)CNC(=O)[C@@H]1CCCN1C(=O)[C@H](CCCNC(=N)N)NC(=O)[C@H](Cc1c[nH]c2ccccc12)NC(=O)[C@H](CCC(=O)O)NC(=O)[C@@H](N)Cc1c[nH]c2ccccc12)C(=O)N[C@@H](Cc1c[nH]c2ccccc12)C(=O)N[C@@H](CCC(=O)O)C(=O)N[C@@H](Cc1c[nH]c2ccccc12)C(=O)O [P1, WEWRPGRWEW] (H-WEWRPGRWEW-OH; N-terminus assumed)",>64 µM,>64 µM,>64 µM,>64 µM,>64 µM,>64 µM,>64 µM,>64 µM,>64 µM
"N=C(N)NCCC[C@H](NC(=O)CNC(=O)[C@@H]1CCCN1C(=O)[C@H](CCCNC(=N)N)NC(=O)[C@H](Cc1c[nH]c2ccccc12)NC(=O)[C@H](CC(=O)O)NC(=O)[C@@H](N)Cc1c[nH]c2ccccc12)C(=O)N[C@@H](Cc1c[nH]c2ccccc12)C(=O)N[C@@H](CC(=O)O)C(=O)N[C@@H](Cc1c[nH]c2ccccc12)C(=O)O [P4, WDWRPGRWDW] (H-WDWRPGRWDW-OH; N-terminus assumed)",>64 µM,>64 µM,>64 µM,>64 µM,>64 µM,>64 µM,>64 µM,>64 µM,>64 µM
"N=C(N)NCCC[C@H](NC(=O)CNC(=O)[C@@H]1CCCN1C(=O)[C@H](CCCNC(=N)N)NC(=O)[C@H](Cc1c[nH]c2ccccc12)NC(=O)[C@H](CCC(=O)O)NC(=O)[C@H](Cc1c[nH]c2ccccc12)NC(=O)[C@H](CCCNC(=N)N)NC(=O)[C@H](Cc1c[nH]c2ccccc12)NC(=O)[C@H](CCC(=O)O)NC(=O)[C@@H](N)Cc1c[nH]c2ccccc12)C(=O)N[C@@H](Cc1c[nH]c2ccccc12)C(=O)N[C@@H](CCC(=O)O)C(=O)N[C@@H](Cc1c[nH]c2ccccc12)C(=O)N[C@@H](CCCNC(=N)N)C(=O)N[C@@H](Cc1c[nH]c2ccccc12)C(=O)N[C@@H](CCC(=O)O)C(=O)N[C@@H](Cc1c[nH]c2ccccc12)C(=O)O [P2, WEWRWEWRPGRWEWRWEW] (H-WEWRWEWRPGRWEWRWEW-OH; N-terminus assumed)",>64 µM,>64 µM,>64 µM,>64 µM,>64 µM,>64 µM,>64 µM,>64 µM,>64 µM
"N=C(N)NCCC[C@H](NC(=O)CNC(=O)[C@@H]1CCCN1C(=O)[C@H](CCCNC(=N)N)NC(=O)[C@H](Cc1c[nH]c2ccccc12)NC(=O)[C@H](CCCCN)NC(=O)[C@@H](N)Cc1c[nH]c2ccccc12)C(=O)N[C@@H](Cc1c[nH]c2ccccc12)C(=O)N[C@@H](CCCCN)C(=O)N[C@@H](Cc1c[nH]c2ccccc12)C(=O)O [P10, WKWRPGRWKW] (H-WKWRPGRWKW-OH; N-terminus assumed)",8 µM,16 µM,>64 µM,64 µM,>64 µM,64 µM,>64 µM,>64 µM,64 µM
